Test results as given in BindingDB's records for doi:10.1021/ml400382p (Glaxosmithkline, 2013).
pIC50: −log10 of the molar value.

Experiment: Inhibition of RIP1 in human U937 cells assessed as prevention of TNFalpha/zVAD.fmk-induced necrotic cell death preincubated for 30 to 60 mins followed by TNF-alpha induction measured after overnight incubation by Cell Titer-Glo luminescence assay

Row | SMILES | pIC50
1 | Nc1ncnc2occ(-c3ccc(NC(=O)Nc4cc(C(F)(F)F)cc(C(F)(F)F)c4)cc3)c12 [3-(4-{4-aminofuro[2,3-d]pyrimidin-5-yl}phenyl)-1-[3,5-bis(trifluoromethyl)phenyl]urea] | 5.10
2 | Nc1nccc2c(-c3ccc(NC(=O)Nc4ccc(F)c(C(F)(F)F)c4)cc3)cccc12 | 5.60
3 | Nc1ncnc2occ(-c3ccc(NC(=O)Nc4cccc(Cl)c4)cc3)c12 | 5.10
4 | O=C(Nc1cccc(-c2c[nH]c3ncc(-c4cn[nH]c4)cc23)c1)Nc1cc(C(F)(F)F)ccc1F | 7.20
5 | Nc1nccc2c(-c3ccc(NC(=O)Nc4cc(F)cc(C(F)(F)F)c4)cc3)cccc12 | 5.60
6 | CCS(=O)(=O)c1ccc(-c2cnc3[nH]cc(-c4cccc(NC(=O)Nc5cc(C(F)(F)F)ccc5F)c4)c3c2)cc1 | 7.60
7 | Nc1ncnc2occ(-c3ccc(NC(=O)Nc4cccc(C(F)(F)F)c4F)cc3)c12 | 5.00
8 | O=C(Nc1cccc(-c2c[nH]c3ncc(-c4cccnc4)cc23)c1)Nc1cc(C(F)(F)F)ccc1F | 8.20
9 | O=C(Nc1cccc(-c2c[nH]c3ncc(-c4ccccc4)cc23)c1)Nc1cccc(C(F)(F)F)c1 | 7.10
10 | Nc1nccc2c(-c3ccc(NC(=O)Nc4cccc(C(F)(F)F)c4)cc3)cccc12 | 6.20
11 | Nc1ncnc2occ(-c3ccc(NC(=O)Nc4ccc(F)c(C(F)(F)F)c4)cc3)c12 | 5.89
12 | O=C(Nc1cccc(-c2c[nH]c3ncc(-c4ccccc4)cc23)c1)Nc1cccc([N+](=O)[O-])c1 | 6.49
13 | Nc1nccc2c(-c3ccc(NC(=O)Nc4cc(C(F)(F)F)ccc4F)cc3)cccc12 | 6.20
14 | CC(C)(C)c1cc(NC(=O)Nc2ccc(-c3coc4ncnc(N)c34)cc2)no1 | 6.70
15 | Nc1ncnc2occ(-c3ccc(NC(=O)Nc4cccc(C(F)(F)F)c4)cc3)c12 [3-(4-{4-aminofuro[2,3-d]pyrimidin-5-yl}phenyl)-1-[3-(trifluoromethyl)phenyl]urea] | 6.00
16 | Nc1ncnc2occ(-c3ccc(NC(=O)Nc4cc(F)cc(C(F)(F)F)c4)cc3)c12 | 5.30
17 | NC(=O)c1cccc(-c2cnc3[nH]cc(-c4cccc(NC(=O)Nc5cc(C(F)(F)F)ccc5F)c4)c3c2)c1 | 7.20
18 | CCc1cccc(NC(=O)Nc2ccc(-c3coc4ncnc(N)c34)cc2)c1 | 6.60
19 | Nc1ncnc2occ(-c3ccc(NC(=O)Nc4ccc(Cl)c(C(F)(F)F)c4)cc3)c12 | 5.89
20 | O=C(Nc1ccccc1)Nc1cccc(-c2c[nH]c3ncc(-c4ccccc4)cc23)c1 [1-phenyl-3-(3-(5-phenyl-1H-pyrrolo[2,3-b]pyridin-3-yl)phenyl)urea] | 6.22
21 | Nc1nccc2c(-c3ccc(NC(=O)Nc4cc(C(F)(F)F)ccc4Cl)cc3)cccc12 | < 5.00
22 | Nc1nccc2c(-c3ccc(NC(=O)Nc4ccc(Cl)c(C(F)(F)F)c4)cc3)cccc12 | 5.70
23 | O=C(Nc1cccc(-c2c[nH]c3ncc(-c4ccccc4)cc23)c1)Nc1cc(C(F)(F)F)ccc1F | 6.80
24 | COc1cccc(NC(=O)Nc2cccc(-c3c[nH]c4ncc(-c5ccccc5)cc34)c2)c1 | 6.40
25 | Nc1ccc(-c2cnc3[nH]cc(-c4cccc(NC(=O)Nc5cc(C(F)(F)F)ccc5F)c4)c3c2)cc1 | 7.80
26 | CS(=O)(=O)c1cccc(-c2cnc3[nH]cc(-c4cccc(NC(=O)Nc5cc(C(F)(F)F)ccc5F)c4)c3c2)c1 | 7.30
27 | O=C(Nc1cccc(-c2c[nH]c3ncc(-c4ccccc4)cc23)c1)NC1CCCC1 | 5.10
28 | Nc1ncnc2occ(-c3ccc(NC(=O)Nc4ccc5ccccc5c4)cc3)c12 [3-(4-{4-aminofuro[2,3-d]pyrimidin-5-yl}phenyl)-1-naphthalen-2-ylurea] | 6.10
29 | CC(=O)c1cccc(NC(=O)Nc2cccc(-c3c[nH]c4ncc(-c5ccccc5)cc34)c2)c1 | 6.49
